Measured values reported in PubChem BioAssay (NCI).
Several values for one entry are separate records, joined by “and”; a condition that tells them apart may be missing. Equal entries are not always repeated.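 Assay format: 96-well plates, 48-hour exposure. The concentration for full growth arrest is given as TGI.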 Where a SMILES comes first, the peptide text is derived from it. The star is where a group is joined. Cbz = O=C(OCc1ccccc1)*; Boc = CC(C)(C)OC(=O)*; OSu = O=C1CCC(=O)N1O*; Bn = c1ccc(C*)cc1

Tests used:
Experiment in all cases: DTP human tumour cell line panel, 48 h
CCRF-CEM leukemia = test system: CCRF-CEM leukemia
OVCAR-4 ovarian = test system: OVCAR-4 ovarian
MDA-MB-231 breast = test system: MDA-MB-231 breast
HCT-15 colon = test system: HCT-15 colon
786-0 renal = test system: 786-0 renal
ACHN renal = test system: ACHN renal
NCI-H23 lung = test system: NCI-H23 lung
SF-539 CNS = test system: SF-539 CNS
HL-60(TB) leukemia = test system: HL-60(TB) leukemia
MALME-3M melanoma = test system: MALME-3M melanoma

Row | Structure (SMILES) | TGI (CCRF-CEM leukemia) | TGI (OVCAR-4 ovarian) | TGI (MDA-MB-231 breast) | TGI (HCT-15 colon) | TGI (786-0 renal) | TGI (ACHN renal) | TGI (NCI-H23 lung) | TGI (SF-539 CNS) | TGI (HL-60(TB) leukemia) | TGI (MALME-3M melanoma)
1 | Cc1nc(Cc2n[nH]c(C)n2)n[nH]1 | > 100 µM | > 100 µM | > 100 µM | > 100 µM | > 100 µM | > 100 µM | > 100 µM | > 100 µM |  | 
2 | O=C(O)/C=C/c1ccncc1 | > 100 µM | > 100 µM |  | > 100 µM | > 100 µM | > 100 µM | > 100 µM | > 100 µM | > 100 µM | > 100 µM
3 | CCOC(=O)C1CCC(=O)N1C(=O)c1ccc(Cl)cc1 (stereo unspecified) | > 100 µM |  | > 100 µM | > 100 µM | > 100 µM | > 100 µM | > 100 µM | > 100 µM | > 100 µM | > 100 µM
4 | CCC(=C/[C@H](C)C/C=C/C(C)=C/[C@@H](C)C(=O)[C@@H](C)[C@H](O)[C@@H](C)CC)/C=C/[C@H]1CC=CC(=O)O1 | 0.179 µM | 12 µM |  | 1.78 µM | 1.26 µM and 10.8 µM | 1.89 µM and 10.9 µM | 5.26 µM and 13.3 µM | 0.174 µM and 1.35 µM | 0.0126 µM | 2.31 µM
5 | CCOC(=O)c1cc2c3c(cc(OC)c2[nH]1)N(C(=O)OCC)CC3 | > 100 µM | > 100 µM | > 100 µM | > 100 µM | > 100 µM |  | > 100 µM | > 100 µM | > 100 µM | > 100 µM
6 | CC[C@]1(Cc2ccc(OC)c(OC)c2)C=[N+]([O-])O[C@H](OC2CCCC2(c2ccccc2)c2ccccc2)[C@@H]1OC(=O)C(C)(C)C (stereo partly specified) | > 40.3 µM | 14.1 µM | > 33 µM | 8.97 µM | 5.31 µM | 5.25 µM | 14.8 µM |  | 8.1 µM | 
7 | CCOC(=O)c1c(-c2ccccc2)c(C)cn1C | > 10 µM | > 10 µM | 0.772 µM | > 10 µM | > 10 µM | > 10 µM | > 10 µM | > 10 µM |  | 
8 | NC(N)=NCCCC(NC(=O)c1c2ccccc2nc2ccccc12)C(=O)O (stereo unspecified) | > 100 µM | > 100 µM | > 100 µM | > 100 µM | > 100 µM | > 100 µM | > 100 µM | > 100 µM |  | 
9 | CC[C@@]12CCC(=S)N(CCSc3ccccc3)[C@@H]1c1c(n(S(=O)(=O)c3ccc(OC)cc3)c3ccccc13)CC2 | > 100 µM |  | > 100 µM | > 100 µM | > 100 µM |  | > 100 µM | > 100 µM | > 100 µM | > 100 µM
10 | CCOC(=O)c1csc(NC(=O)C(C)N2CCOCC2)n1 (stereo unspecified) | > 100 µM | > 100 µM | > 100 µM | > 100 µM |  | > 100 µM | > 100 µM | > 100 µM | > 100 µM | > 100 µM
11 | C[n+]1c2ccccc2c(C(=O)Nc2ccc(S(=O)(=O)Nc3ncccn3)cc2)c2ccccc21 |  | > 100 µM | > 100 µM | > 100 µM | > 100 µM | > 100 µM | > 100 µM | > 100 µM |  | > 100 µM
12 | O=C(NCc1ccccc1Cl)c1c(O)c2ccccc2[nH]c1=O | > 100 µM | 23.2 µM | 45.3 µM | > 100 µM | 36.5 µM |  | > 100 µM | > 100 µM | > 100 µM | > 100 µM
13 | CC(C)(C)OC(=O)NC(Cc1ccc(OCc2ccccc2)cc1)C(=O)NC(CCCCNC(=O)OCc1ccccc1)C(=O)NC(CCCCNC(=O)OCc1ccccc1)C(=O)ON1C(=O)CCC1=O (stereo unspecified) (Boc-Tyr(Bn)-Lys(Cbz)-Lys(Cbz)-OSu; configuration not given here) | > 100 µM | > 100 µM |  | > 100 µM | 37.1 µM | > 100 µM | > 100 µM |  |  | > 100 µM
14 | Cn1c(=O)c2c(nc(N/N=C3/SCC(=O)N3Cc3ccccc3)n2C)n(C)c1=O | > 100 µM | > 100 µM | > 100 µM | > 100 µM | > 100 µM | > 100 µM | > 100 µM | > 100 µM |  | > 100 µM
15 | CCCCCCCCCCCCC1N=C(N)NC2(CCCO2)C1C(=O)OC (stereo unspecified) | 5.83 µM | 26.4 µM | 13.3 µM | 42.9 µM | 16.9 µM | 25.2 µM | 18.2 µM | 15.8 µM |  | 38 µM
16 | COc1cccc(N=NN2CCCC2)c1 | > 100 µM | > 100 µM | > 100 µM | > 100 µM | > 100 µM | > 100 µM | > 100 µM | > 100 µM | > 100 µM | 
17 | CC(C)=CCC/C(C)=C/C=C/C(C)=C/C1C[C@@]2(C(O)O1)[C@H](CCCO)/C(=C(/C)C=O)CC[C@]2(C)O (stereo partly specified) |  |  |  | 31 µM |  | 25.2 µM |  | 25 µM | 29 µM | 22.6 µM
18 | COC1OC(C(=O)O)C2OC(C)(C)OC12 (stereo unspecified) | > 100 µM | > 100 µM | > 100 µM | > 100 µM | > 100 µM | > 100 µM | > 100 µM | > 100 µM |  | > 100 µM
19 | Cc1ccc(NC(=O)C(=O)Cc2cccc[n+]2[O-])cc1C | > 100 µM | > 100 µM |  | > 100 µM | > 100 µM | > 100 µM | > 100 µM | > 100 µM | > 100 µM | > 100 µM
20 | CC(C)=CC(=O)c1c(C(=O)O)nc2ccccc2[n+]1[O-] | > 100 µM | > 100 µM |  | > 100 µM | > 100 µM | > 100 µM | > 100 µM | > 100 µM | > 100 µM | 
21 | CC1(Cl)CC(C)(/C=C/Cl)C(Cl)CC1Cl (stereo unspecified) | 59 µM | 37.1 µM |  | 27.3 µM | 29.1 µM | 27.8 µM | 44.1 µM | 34.4 µM |  | 29.6 µM
22 | C(=C\c1c2oc(-c3ccccc3)cc(-c3ccccc3)c-2c2ccccc12)/C=C1\c2ccccc2-c2c(-c3ccccc3)cc(-c3ccccc3)[o+]c21 | > 100 µM | > 100 µM |  | > 100 µM | > 100 µM | > 100 µM | > 100 µM | > 100 µM | > 100 µM | > 100 µM
23 | COc1cc(/C=C2/Oc3c(OC)cccc3C2=O)ccc1O | > 100 µM | > 100 µM | > 100 µM | > 100 µM | > 100 µM | > 100 µM | > 100 µM |  | > 100 µM | 
24 | Clc1cc2ncn(C3CCCCO3)c2cc1Cl (stereo unspecified) | > 100 µM | > 100 µM | > 100 µM | > 100 µM | > 100 µM |  | > 100 µM | > 100 µM | > 100 µM | > 100 µM
